Experimental data published in ChEMBL document CHEMBL5316300, “Discovery of TP0597850: A Selective, Chemically Stable, and Slow Tight-Binding Matrix Metalloproteinase-2 Inhibitor with a Phenylbenzamide-Pentapeptide Hybrid Scaffold” (J Med Chem, 2023).
Square brackets hold non-standard residues; d marks the D form. Peptide text beside a SMILES is read from it. * marks the point of attachment. Benzoyl(4-OPh(4-CONH2)) = NC(=O)c1ccc(Oc2ccc(C(=O)*)cc2)cc1; NMeI = CC[C@H](C)[C@H](NC)C(=O)O; NMeE = CN[C@@H](CCC(=O)O)C(=O)O; β3hP = O=C(O)C[C@@H]1CCCN1; Dab = NCC[C@H](N)C(=O)O; Ava = NCCCCC(=O)O

Key:
[1] = target: T1, 72 kDa type IV collagenase (Homo sapiens, UniProt P08253); experiment: Inhibition of recombinant human MMP2 using MOCAc-Lys-Pro-Leu-Gly-Leu-A2pr(Dnp)-Ala-Arg-N2 as substrate preincubated for 10 to 15 mins followed by substrate addition and measured after 60 to 120 mins by fluorescence based assay
T1 sequence (P08253 whole entry): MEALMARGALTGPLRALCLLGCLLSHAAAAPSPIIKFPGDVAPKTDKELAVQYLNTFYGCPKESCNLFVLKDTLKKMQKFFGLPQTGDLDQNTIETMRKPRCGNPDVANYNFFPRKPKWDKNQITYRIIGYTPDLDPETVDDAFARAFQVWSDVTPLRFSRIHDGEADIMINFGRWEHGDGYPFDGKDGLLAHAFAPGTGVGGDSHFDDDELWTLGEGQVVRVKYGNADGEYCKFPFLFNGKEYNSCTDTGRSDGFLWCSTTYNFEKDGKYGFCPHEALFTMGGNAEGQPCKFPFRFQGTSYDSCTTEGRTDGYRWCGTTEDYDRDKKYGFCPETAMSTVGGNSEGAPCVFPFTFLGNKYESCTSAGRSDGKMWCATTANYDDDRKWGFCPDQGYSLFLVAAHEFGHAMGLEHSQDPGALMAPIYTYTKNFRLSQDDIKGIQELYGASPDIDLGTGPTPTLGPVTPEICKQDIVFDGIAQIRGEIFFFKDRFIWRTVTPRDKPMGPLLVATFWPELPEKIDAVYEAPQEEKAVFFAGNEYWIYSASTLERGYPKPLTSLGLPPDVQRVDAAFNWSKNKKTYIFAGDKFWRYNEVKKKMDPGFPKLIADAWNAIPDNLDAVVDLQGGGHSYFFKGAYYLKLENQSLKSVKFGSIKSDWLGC

[2] = target: Macrophage metalloelastase (Homo sapiens, UniProt P39900); experiment: Inhibition of human recombinant MMP12 using MOCAc-Lys-Pro-Leu-Gly-Leu-A2pr(Dnp)-Ala-Arg-N2 as substrate preincubated for 10 to 15 mins followed by substrate addition and measured after 60 to 120 mins by fluorescence based assay
Sequence of Macrophage metalloelastase (P39900 whole entry): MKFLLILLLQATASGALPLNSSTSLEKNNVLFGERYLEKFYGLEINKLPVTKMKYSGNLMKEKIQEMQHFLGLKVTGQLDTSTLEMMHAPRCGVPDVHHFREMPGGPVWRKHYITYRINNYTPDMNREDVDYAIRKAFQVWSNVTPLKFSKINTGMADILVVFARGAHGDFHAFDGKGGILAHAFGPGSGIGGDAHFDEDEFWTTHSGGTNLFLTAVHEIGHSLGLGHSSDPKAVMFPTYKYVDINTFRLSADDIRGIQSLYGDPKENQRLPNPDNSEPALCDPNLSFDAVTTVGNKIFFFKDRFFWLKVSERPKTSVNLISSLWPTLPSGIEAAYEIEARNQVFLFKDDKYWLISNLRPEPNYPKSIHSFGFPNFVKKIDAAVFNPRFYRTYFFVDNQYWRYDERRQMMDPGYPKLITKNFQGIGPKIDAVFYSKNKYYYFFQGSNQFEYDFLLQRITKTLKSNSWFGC

[3] = target: Collagenase 3 (Homo sapiens, UniProt P45452); experiment: Inhibition of human recombinant MMP13 using MOCAc-Lys-Pro-Leu-Gly-Leu-A2pr(Dnp)-Ala-Arg-N2 as substrate preincubated for 10 to 15 mins followed by substrate addition and measured after 60 to 120 mins by fluorescence based assay
[4] = species on record: Homo sapiens; experiment: Selectivity ratio of IC50 for recombinant human MMP12 to IC50 for recombinant human MMP2
[5] = target: MMP-2/MMP-13 (Homo sapiens) (UniProt P08253+P45452); experiment: Selectivity ratio of IC50 for recombinant human MMP13 to IC50 for recombinant human MMP2; format: protein assay
Sequence of MMP-2/MMP-13 (Homo sapiens) (P08253 whole entry, looked up, other chains not shown): as the sequence (P08253 whole entry) above

[6] = Chemical stability of the compound in phosphate buffer at pH 4 assessed as residual rate incubated for 2 weeks by HPLC analysis; format: physicochemical; conditions: read-out: Stability
[7] = Chemical stability of the compound in phosphate buffer at pH 7.4 assessed as residual rate incubated for 2 weeks by HPLC analysis; format: physicochemical; conditions: read-out: Stability
[8] = Chemical stability of the compound in phosphate buffer at pH 9 assessed as residual rate incubated for 2 weeks by HPLC analysis; format: physicochemical; conditions: read-out: Stability
[9] = target: T1, 72 kDa type IV collagenase; experiment: Inhibition of MMP2 (unknown origin)

Row | IC50 [2] | Ki [1] [nM] | Compound | IC50 [1] [nM] | IC50 ([2]; read-out: IC50) [nM] | IC50 [3] [nM] | Ratio IC50 [4] | Ratio IC50 [5] | remaining at 336 h [6] [%] | remaining at 336 h [7] [%] | remaining at 336 h [8] [%] | IC50 [9] [nM]
1 | Not Active |  | CC[C@H](C)[C@@H](C(=O)N1CCC[C@H]1CC(N)=O)N(C)C(=O)[C@H](CC(C)C)NC(=O)[C@H](CCN)NC(=O)CC[C@@H](NS(=O)(=O)c1ccc(Oc2ccccc2)cc1)C(=O)O | > 10 |  |  |  |  |  |  |  | 
2 |  |  | CC[C@H](C)[C@@H](C(=O)NCCCCCC(N)=O)N(C)C(=O)[C@H](CC(C)C)NC(=O)[C@H](CCN)NC(=O)CC[C@@H](NS(=O)(=O)c1ccc(NC(=O)c2ccc(Cl)cc2)cc1)C(=O)O | 0.1 | 260 | 280 | 2600 | 2800 |  |  |  | 
3 |  |  | CC[C@H](C)[C@@H](C(=O)N1CCC[C@H]1CC(N)=O)N(C)C(=O)[C@H](CC(C)C)NC(=O)[C@H](CCN)NC(=O)CC[C@@H](NS(=O)(=O)c1ccc(-c2ccccc2)cc1)C(=O)O | 6.2 | 240 | 230 | 39 | 37 |  |  |  | 
4 |  |  | CC(C)C[C@H](NC(=O)[C@H](CCN)NC(=O)[C@H](CC(=O)O)NC(=O)[C@H](CCC(=O)O)NC(=O)CCCCNC(=O)c1ccc(Oc2ccc(C(N)=O)cc2)cc1)C(=O)N(C)[C@@H](CCC(=O)O)C(=O)N1CCC[C@H]1CC(N)=O ({Benzoyl(4-OPh(4-CONH2))-Ava}-ED[Dab]L[NMeE][β3hP]-NH2) |  |  |  |  |  | 69.5 | 89 | 87.7 | 
5 |  |  | CC[C@H](C)[C@@H](C(=O)NCCCC(N)=O)N(C)C(=O)[C@H](CC(C)C)NC(=O)[C@H](CCN)NC(=O)CC[C@@H](NS(=O)(=O)c1ccc(NC(=O)c2ccc(Cl)cc2)cc1)C(=O)O | 0.16 | 230 | 280 | 1400 | 1800 |  |  |  | 
6 |  |  | CC[C@H](C)[C@@H](C(=O)N1CCC[C@H]1CC(N)=O)N(C)C(=O)[C@H](CC(C)C)NC(=O)[C@H](CCN)NC(=O)[C@H](CC(=O)O)NC(=O)[C@H](CCC(=O)O)NC(=O)CCCCNC(=O)c1ccc(Oc2ccc(C(N)=O)cc2)cc1 ({Benzoyl(4-OPh(4-CONH2))-Ava}-ED[Dab]L[NMeI][β3hP]-NH2) |  |  |  |  |  |  |  |  | 0.18
7 |  |  | CC[C@H](C)[C@@H](C(=O)NCCCCC(N)=O)N(C)C(=O)[C@H](CC(C)C)NC(=O)[C@H](CCN)NC(=O)CC[C@@H](NS(=O)(=O)c1ccc(NC(=O)c2ccc(C(N)=O)cc2)cc1)C(=O)O | 0.22 | 410 | 690 | 1900 | 3100 | 98.3 | 88.8 | 47.6 | 
8 |  |  | CC(C)C[C@H](NC(=O)[C@@H]1CCCN1C(=O)CC[C@@H](NS(=O)(=O)c1ccc(NC(=O)c2ccc(C(N)=O)cc2)cc1)C(=O)O)C(=O)N(C)[C@@H](CCC(=O)O)C(=O)NCCCCC(N)=O | 0.31 | 52 | 50 | 170 | 160 |  |  |  | 
9 |  |  | CC[C@H](C)[C@@H](C(=O)NCCC(N)=O)N(C)C(=O)[C@H](CC(C)C)NC(=O)[C@H](CCN)NC(=O)CC[C@@H](NS(=O)(=O)c1ccc(NC(=O)c2ccc(Cl)cc2)cc1)C(=O)O | 0.2 | 240 | 280 | 1200 | 1400 |  |  |  | 
10 |  |  | CC[C@H](C)[C@@H](C(=O)NCCCCC(N)=O)N(C)C(=O)[C@H](CC(C)C)NC(=O)[C@@H]1C[C@H](N)CN1C(=O)CC[C@@H](NS(=O)(=O)c1ccc(NC(=O)c2ccc(C(N)=O)cc2)cc1)C(=O)O |  |  |  | 550 | 860 |  |  |  | 
11 |  |  | CC[C@H](C)[C@@H](C(=O)NCCCCC(N)=O)N(C)C(=O)[C@H](CC(C)C)NC(=O)[C@@H]1CNCCN1C(=O)CC[C@@H](NS(=O)(=O)c1ccc(NC(=O)c2ccc(Cl)cc2)cc1)C(=O)O | 0.67 | 78 | 370 | 120 | 550 |  |  |  | 
12 |  |  | CC[C@H](C)[C@@H](C(=O)N1CCC[C@H]1CC(N)=O)N(C)C(=O)[C@H](CC(C)C)NC(=O)[C@H](CCN)NC(=O)CC[C@@H](NS(=O)(=O)c1ccc(NC(=O)c2ccc(Cl)cc2)cc1)C(=O)O | 0.43 | 200 | 160 | 470 | 370 |  |  |  | 
13 |  |  | CC[C@H](C)[C@@H](C(=O)NCCCCC(N)=O)N(C)C(=O)[C@H](CC(C)C)NC(=O)[C@H](CCN)NC(=O)CC[C@@H](NS(=O)(=O)c1ccc(NC(=O)c2ccc(Cl)cc2)cc1)C(=O)O | 0.11 | 180 | 310 | 1600 | 2800 |  |  |  | 
14 |  | 21 | H-ISYGNDALMP-OH |  |  |  |  |  |  |  |  | 
15 |  |  | CC[C@H](C)[C@@H](C(=O)N1CCC[C@H]1CC(N)=O)N(C)C(=O)[C@H](CC(C)C)NC(=O)[C@H](CCN)NC(=O)CC[C@@H](NS(=O)(=O)c1ccc(NC(=O)c2ccc(C(N)=O)cc2)cc1)C(=O)O | 0.42 | 400 | 280 | 950 | 670 |  |  |  | 
16 |  |  | CC[C@H](C)[C@@H](C(=O)N1CCC[C@H]1CC(N)=O)N(C)C(=O)[C@H](CC(C)C)NC(=O)[C@H](CCN)NC(=O)CC[C@@H](NS(=O)(=O)c1ccc(NC(=O)c2ccccc2)cc1)C(=O)O | 0.74 | 990 | 630 | 1300 | 850 |  |  |  | 
